In series [1] the test system is bicistronic HCV replicon (replicon RNA, GenBank Accession No. AJ242654). The series can be described thus: HCV Replicon Assay. It counts as cell-based. Conditions: Hepatitis C virus, 72 h, read-out: Replicon IC50. For orientation: In antiviral work, replicon cells carry a viral genome segment that copies itself.

The values below come from patent publication US8735414B2 (priority 2009, dated 2014).

Structures are written as SMILES.

For orientation: IC50 means the concentration that inhibits the measured activity by half. As a reminder, the melting point is the temperature of the solid-liquid transition. `Cc1ccc2c(c1)c(C#N)c(-c1ccc(S(=O)(=O)N[C@@H](C)C(F)(F)F)cn1)n2-c1ncc(F)cn1` [compound 948, 6-[3-cyano-1-(5-fluoropyrimidin-2-yl)-5-methyl-1H-indol-2-yl]-N-[(2S)-1,1,1-trifluoropropan-2-yl]pyridine-3-sulfonamide] returned a melting point of 202 to 207 °C. In series [1], the IC50 is < 500 nM.

With `Cc1ccc2c(C#N)c(-c3ccc(S(=O)(=O)NC4(C(F)(F)F)CC4)cn3)n(CC3CC3)c2c1` [compound 255, 6-[3-cyano-1-(cyclopropylmethyl)-6-methyl-1H-indol-2-yl]-N-[1-(trifluoromethyl)cyclopropyl]pyridine-3-sulfonamide], the melting point was in the range of 191 to 195 °C. The IC50 in series [1] was < 500 nM.

Compound `CC(C)NS(=O)(=O)c1cnc(-c2c(C(N)=O)c3cc(Cl)ccc3n2C2CCC2)nc1` [compound 745, 5-chloro-1-cyclobutyl-2-[5-(propan-2-ylsulfamoyl)pyrimidin-2-yl]-1H-indole-3-carboxamide] had a melting point of 245 to 247 °C. In series [1], the half-maximal inhibitory concentration (IC50) was < 500 nM.

For `CCc1ccc2c(C#N)c(-c3ccc(S(=O)(=O)N[C@@H](C)C4CC4)cn3)n(C3CCCC3)c2c1` [compound 312, 6-(3-cyano-1-cyclopentyl-6-ethyl-1H-indol-2-yl)-N-[(1S)-1-cyclopropylethyl]pyridine-3-sulfonamide], the melting point fell in the range of 147.5 to 148.5 °C. In series [1], the IC50 is 500 to 2000 nM.

`Cc1cc2c(cc1F)c(C#N)c(-c1ccc(S(=O)(=O)N[C@@H](C)C(F)(F)F)cn1)n2-c1nc(C#N)co1` [compound 1074, 6-[3-cyano-1-(4-cyano-1,3-oxazol-2-yl)-5-fluoro-6-methyl-1H-indol-2-yl]-N-[(2S)-1,1,1-trifluoropropan-2-yl]pyridine-3-sulfonamide] had a melting point of 212.2 to 216.9 °C. In addition, the 50% inhibitory concentration (IC50) in series [1] is < 500 nM.

As for `Cc1ccc2c(C#N)c(-c3ccc(S(=O)(=O)NC(CF)CF)cn3)n(-c3ccccn3)c2c1` [compound 248, 6-[3-cyano-6-methyl-1-(pyridin-2-yl)-1H-indol-2-yl]-N-(1,3-difluoropropan-2-yl)pyridine-3-sulfonamide], the melting point was in the range of 159 to 162 °C. The IC50 in series [1] is < 500 nM.

In the case of `Cc1cc(F)c2c(C#N)c(-c3ccc(S(=O)(=O)NC4(C(F)(F)F)CC4)cn3)n(C3CCC3)c2c1` [compound 629, 6-(3-cyano-1-cyclobutyl-4-fluoro-6-methyl-1H-indol-2-yl)-N-[1-(trifluoromethyl)cyclopropyl]pyridine-3-sulfonamide], the melting point lay in the range of 241 to 246 °C. Also, in series [1], the IC50 fell in the range of 2000 to 5000 nM.

Turning to `CC(NS(=O)(=O)c1ccc(-c2c(C#N)c3ccc(OC(F)F)cc3n2C2CCCC2)nc1)C(F)(F)F` (stereo not shown) [compound 53, 6-[3-cyano-1-cyclopentyl-6-(difluoromethoxy)-1H-indol-2-yl]-N-(1,1,1-trifluoropropan-2-yl)pyridine-3-sulfonamide], the melting point was in the range of 189 to 195 °C. Moreover, the IC50 in series [1] is < 500 nM.

With `Cc1ccc2c(C#N)c(-c3ccc(S(=O)(=O)NC(C)(C)C(F)(F)F)cn3)n(C3CCC3)c2c1` [compound 478, 6-(3-cyano-1-cyclobutyl-6-methyl-1H-indol-2-yl)-N-(1,1,1-trifluoro-2-methylpropan-2-yl)pyridine-3-sulfonamide], the melting point lay in the range of 222 to 227 °C. Also, the IC50 in series [1] is < 500 nM.

For `CC(C)(C)S(=O)(=O)Nc1ccc(-c2c(C(N)=O)c3cc(F)c(OC(F)F)cc3n2C2CCCCC2)cn1` [compound 1063, 2-{6-[(tert-butylsulfonyl)amino]pyridin-3-yl}-1-cyclohexyl-6-(difluoromethoxy)-5-fluoro-1H-indole-3-carboxamide], the melting point lay within 296 to 297 °C. The IC50 in series [1] was < 500 nM.

The compound `Cc1ccc2c(c1)c(C#N)c(-c1ncc(S(=O)(=O)NC(C)C)cn1)n2C1CCCC1` [compound 159, 2-(3-cyano-1-cyclopentyl-5-methyl-1H-indol-2-yl)-N-(propan-2-yl)pyrimidine-5-sulfonamide] showed a melting point of 193 to 198 °C. The half-maximal inhibitory concentration (IC50) in series [1] is < 500 nM.

For `Cc1cc2c(C(N)=O)c(-c3ccc(S(=O)(=O)N[C@@H](C)C(F)(F)F)cn3)n(-c3ncccn3)c2cc1F` [compound 918, 6-fluoro-5-methyl-1-(pyrimidin-2-yl)-2-(5-{[(2S)-1,1,1-trifluoropropan-2-yl]sulfamoyl}pyridin-2-yl)-1H-indole-3-carboxamide], the melting point fell in the range of 245 to 249 °C. Also, in series [1], the concentration for half-maximal inhibition (IC50) lay in the range of 2000 to 5000 nM.

The compound `CCn1c(-c2ccc(N(C(C)C)S(=O)(=O)CC)cn2)c(C#N)c2ccc(OC(C)C)cc21` [compound 282, N-{6-[3-cyano-1-ethyl-6-(propan-2-yloxy)-1H-indol-2-yl]pyridin-3-yl}-N-(propan-2-yl)ethanesulfonamide] showed a melting point of 170 to 175 °C. Moreover, the IC50 in series [1] is 500 to 2000 nM.

For `Cc1cc2c(cc1F)c(C#N)c(-c1ccc(NS(=O)(=O)N[C@@H](C)C(F)(F)F)cn1)n2C1CCCC1` [compound 836, N-[6-(3-cyano-1-cyclopentyl-5-fluoro-6-methyl-1H-indol-2-yl)pyridin-3-yl]-N′-[(2S)-1,1,1-trifluoropropan-2-yl]sulfuric diamide], the melting point lay in the range of 206 to 208 °C. Further, the IC50 in series [1] lay in the range of 500 to 2000 nM.

Regarding `Cc1cc2c(cc1F)c(C#N)c(-c1ccc(S(=O)(=O)N[C@@H](C)C(F)(F)F)cn1)n2-c1ccoc1` [compound 991, 6-[3-cyano-5-fluoro-1-(furan-3-yl)-6-methyl-1H-indol-2-yl]-N-[(2S)-1,1,1-trifluoropropan-2-yl]pyridine-3-sulfonamide], the melting point lay within 215 to 219 °C. For the same compound, in series [1], the IC50 is < 500 nM.

Compound `C[C@H](NS(=O)(=O)c1ccc(-c2c(C#N)c3cc(OC(F)(F)F)ccc3n2-c2cnccn2)nc1)C(F)(F)F` [compound 898, 6-[3-cyano-1-(pyrazin-2-yl)-5-(trifluoromethoxy)-1H-indol-2-yl]-N-[(2S)-1,1,1-trifluoropropan-2-yl]pyridine-3-sulfonamide] came in with a melting point of 191 to 195 °C. In addition, the concentration for half-maximal inhibition (IC50) in series [1] was in the range of 500 to 2000 nM.

On to `CC(C)c1ccc2c(C#N)c(-c3ccc(S(=O)(=O)NC(CF)CF)cn3)n(C(C)C)c2c1` [compound 456, 6-[3-cyano-1,6-di(propan-2-yl)-1H-indol-2-yl]-N-(1,3-difluoropropan-2-yl)pyridine-3-sulfonamide], for which the melting point was 165 to 173 °C. Further, in series [1], the 50% inhibitory concentration (IC50) is < 500 nM.

Turning to `Cc1cc2c(cc1F)c(C#N)c(-c1ccc(S(=O)(=O)N[C@H](C)C(F)(F)F)cn1)n2C1CCC1` [compound 609, 6-(3-cyano-1-cyclobutyl-5-fluoro-6-methyl-1H-indol-2-yl)-N-[(2R)-1,1,1-trifluoropropan-2-yl]pyridine-3-sulfonamide], the melting point was in the range of 211 to 214 °C. Besides, the IC50 in series [1] is < 500 nM.

On to `Cc1c(F)cc2c(C#N)c(-c3ccc(S(=O)(=O)N[C@@H](C)C(F)(F)F)cn3)n(C3CCCC3)c2c1F` [compound 508, 6-(3-cyano-1-cyclopentyl-5,7-difluoro-6-methyl-1H-indol-2-yl)-N-[(2S)-1,1,1-trifluoropropan-2-yl]pyridine-3-sulfonamide], for which the melting point lay in the range of 215 to 219 °C. Besides, the IC50 in series [1] is < 500 nM.

`C[C@H](NS(=O)(=O)c1ccc(-c2c(C#N)c3cc(Cl)ccc3n2-c2ncccn2)nc1)C(F)(F)F` [compound 708, 6-[5-chloro-3-cyano-1-(pyrimidin-2-yl)-1H-indol-2-yl]-N-[(2S)-1,1,1-trifluoropropan-2-yl]pyridine-3-sulfonamide]: the melting point is 193 to 196 °C. Moreover, the concentration for half-maximal inhibition (IC50) in series [1] was < 500 nM.

On to `C[C@H](NS(=O)(=O)c1ccc(-c2c(C#N)c3ccc(Cl)cc3n2-c2ccccn2)nc1)C1CC1` [compound 488, 6-[6-chloro-3-cyano-1-(pyridin-2-yl)-1H-indol-2-yl]-N-[(1S)-1-cyclopropylethyl]pyridine-3-sulfonamide], for which the melting point lay in the range of 199 to 201 °C. The IC50 in series [1] is < 500 nM.

`Cc1ccc2c(c1)c(C#N)c(-c1ncc(S(=O)(=O)N[C@@H](C)C3CC3)cn1)n2C1CCCC1` [compound 562, 2-(3-cyano-1-cyclopentyl-5-methyl-1H-indol-2-yl)-N-[(1S)-1-cyclopropylethyl]pyrimidine-5-sulfonamide] registered a melting point of 168 to 171 °C. Further, the half-inhibitory concentration (IC50) in series [1] was < 500 nM.

The compound `Cc1cc2c(cc1F)c(C#N)c(-c1ccc(S(=O)(=O)N[C@@H](C)C(F)(F)F)cn1)n2-c1ccsc1` [compound 992, 6-[3-cyano-5-fluoro-6-methyl-1-(thiophen-3-yl)-1H-indol-2-yl]-N-[(2S)-1,1,1-trifluoropropan-2-yl]pyridine-3-sulfonamide] yielded a melting point of 196 to 203 °C. The half-maximal inhibitory concentration (IC50) in series [1] is < 500 nM.

As for `C[C@H](NS(=O)(=O)c1cnc(-c2c(C#N)c3cc(F)ccc3n2CC2CC2)nc1)C1CC1` [compound 531, 2-[3-cyano-1-(cyclopropylmethyl)-5-fluoro-1H-indol-2-yl]-N-[(1S)-1-cyclopropylethyl]pyrimidine-5-sulfonamide], the melting point was in the range of 184 to 188 °C. Besides, in series [1], the concentration for half-maximal inhibition (IC50) is < 500 nM.

The compound `CC(C)n1c(-c2ccc(S(=O)(=O)N[C@@H](C)C(F)(F)F)cn2)c(C#N)c2cc(F)c(OC(F)F)cc21` [compound 936, 6-[3-cyano-6-(difluoromethoxy)-5-fluoro-1-(propan-2-yl)-1H-indol-2-yl]-N-[(2S)-1,1,1-trifluoropropan-2-yl]pyridine-3-sulfonamide] came in with a melting point of 184 to 188 °C. Further, in series [1], the half-inhibitory concentration (IC50) was < 500 nM.

In the case of `CC(C)n1c(-c2ccc(S(=O)(=O)N[C@@H](C)C(F)(F)F)cn2)c(C#N)c2c(F)cc(OC(F)F)cc21` [compound 784, 6-[3-cyano-6-(difluoromethoxy)-4-fluoro-1-(propan-2-yl)-1H-indol-2-yl]-N-[(2S)-1,1,1-trifluoropropan-2-yl]pyridine-3-sulfonamide], the melting point is 193 to 194 °C. Besides, the concentration for half-maximal inhibition (IC50) in series [1] is < 500 nM.
